Experimental data taken from the METLIN SMRT retention time set (Domingo-Almenara et al. 2019).

Assay: gradient 5% acetonitrile 3 min, to 50% in 2 min, to 85% in 15 min, held 3 min, 100 µL/min
Conditions: column: Zorbax Extend-C18 2.1 x 50 mm; eluents: water / acetonitrile, 0.1% formic acid
In short: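 The mobile phases were water and acetonitrile, each with 0.1% formic acid, pumped at 100 μL/min through a Zorbax Extend-C18 column (2.1 × 50 mm, 1.8 μm). Pure standards were injected as mixtures of ~100 molecules and detected by a quadrupole time-of-flight mass spectrometer in positive and negative ionization mode. Retention time came from computationally picked adduct peaks, each inspected by hand.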

Row | SMILES | RP-LC retention time [s]
1 | COc1ccc(NS(=O)(=O)c2cc(-c3cc(C(F)(F)F)on3)sc2C)cc1 | 1120
2 | CC(=O)Nc1ccc(NC(=O)c2nn(-c3ccccc3)c3ccccc3c2=O)cc1 | 714
3 | Cc1cc([N+](=O)[O-])ccc1Nc1cccc(Cl)c1C | 1030
4 | CCS(=O)(=O)N1CC(=O)N(c2cccc(C)c2C)C(C)(C(=O)NCc2ccccc2)C1 (stereo not drawn) | 807
5 | CCCNC(=O)Cn1cnc2sc(C(=O)N3CC(C)CC(C)C3)c(C)c2c1=O (stereo not drawn) | 779
6 | Cc1ccc(-c2nc3cnccn3c2Nc2ccc(F)cc2)cc1 | 904
7 | COCCN1C(=O)[C@H]2CN(Cc3cccc(C#N)c3)C[C@H]2C1=O | 607
8 | CS(=O)(=O)Nc1ccc(N2CCCCS2(=O)=O)cc1 | 615
9 | Fc1ccc(Br)cc1-c1nc2ccc(Cl)cn2c1Nc1ccc2c(c1)OCCO2 | 929
10 | Cn1c(C(O)c2ccccc2)nc2ccccc21 (stereo not drawn) | 545
11 | O=C1CC(c2nc(-c3ccc4c(c3)OCO4)no2)CN1c1ccc2c(c1)OCCO2 (stereo not drawn) | 895
12 | CCn1cc(C(=O)NCc2ccc(C)o2)c2cccnc21 | 742
13 | CCc1ccccc1Nc1c(-c2nc(C)no2)cnc2nc(C)ccc12 | 826
14 | O=C(NCc1cccnc1)C(CCO)Sc1nc2sc3c(c2c(=O)[nH]1)CCCC3 (stereo not drawn) | 544
15 | CC(=O)NCc1cn[nH]c1-c1ccc(Cl)cc1 | 625
16 | CCOCCCNC(=O)CCc1nnc2ccc(-c3ccc(C)c(C)c3)nn12 | 754

The remaining lines, values ahead:

Row | RP-LC retention time [s] | SMILES
17 | 732 | COc1ccc(C(=O)N2CCN3CCS(=O)(=O)N(C4CC4)C(=O)C3C2)c(OC)n1 (stereo not drawn)
18 | 823 | CC1(C(=O)NCc2ccc(F)cc2)Cn2cnc(C(=O)NC3CCCCCC3)c2C(=O)N1C1CC1 (stereo not drawn)
19 | 1010 | COc1cc(OC)c(NC(=O)C2CCCN(C(=O)c3cc(C)cc(C)c3)C2)cc1Cl (stereo not drawn)
20 | 633 | O=C(O)c1nnn(Cc2ccccc2F)c1-c1cccnc1
21 | 597 | Cc1nc(Nc2ccccn2)sc1C(=O)N1CCN(C2CCCCC2)CC1
22 | 772 | COc1cc(CN2CC(Oc3ccc(-c4noc(C5CC5)n4)cc3)C2)cc(OC)c1
23 | 777 | COc1cc(C(=O)NCCOc2ccc(F)cc2)c([N+](=O)[O-])cc1OC
24 | 884 | Cc1ccc(NC(=O)Cn2nc(C(=O)N3CCCC3)c3ccccc32)cc1F
25 | 988 | N#Cc1ccsc1NC(=O)c1cccc(Oc2ccccc2)c1
26 | 715 | COc1cccc(CNC(=O)CN2CCN(Cc3ccc(C)cc3)C(=O)C2=O)c1
27 | 927 | CC(C)NC(=O)c1ccccc1OCC1CCN(C(=O)c2cc(F)cc(F)c2)CC1
28 | 749 | O=S(=O)(c1ccc(Cl)cc1)N1CCN(c2cnn3c(C4CC4)nnc3c2)CC1
29 | 597 | COc1ccc(C(=O)NCc2ccc3c(c2)ncn3C(C)C)cn1
30 | 835 | COC(=O)c1cn(CC(=O)NC(C)c2ccc3c(c2)OCCCO3)c2ccccc12 (stereo not drawn)
31 | 866 | O=C(NC1CC(=O)N(c2ccc3c(c2)OCCO3)C1)c1ccc(-c2ccccc2)cc1 (stereo not drawn)
32 | 858 | CC1CCC2(CC1)NC(=O)N(CC(=O)Nc1ccccc1Cl)C2=O (stereo not drawn)
33 | 698 | Cc1cc(C)c2c(N3CCCCC3)nc(C(=O)N3CCC(C)CC3)nc2n1
